Where a name gives a salt, the structure may show the parent alone.
Tests used:
[1] = test system: seasonal allergic conjunctivitis; assay: Randomized, multi-centric, open label clinical study: efficacy on signs and symptoms (itching, hyperemia, chemosis, mucous discharge); assay type: in vivo, human; settings: for mean chemosis score / mean cilliary hyperemia score / mean conjunctival hyperemia score / mean episcleral hyperemia score / mean itching score: score 0-4
Source text: A randomized, multi-centric geographically, open label study to compare the safety and efficacy of the combination of olopatadine hydrochloride 0.1% and ketorolac tromethamine 0.4% w/v ophthalmic solution with olopatadine hydrochloride 0.1% w/v used twice daily for three weeks in adult patients with seasonal allergic conjunctivitis, was completed. The primary objective of this randomized, multi-centric geographically diverse study was to compare the safety and efficacy of the combination of olopatadine and ketorolac with olopatadine in seasonal allergic conjunctivitis. A combination of olopatadine hydrochloride 0.1% w/v and ketorolac tromethamine 0.4% w/v was compared with olopatadine hydrochloride 0.1% w/v alone in the treatment of patients with seasonal allergic conjunctivitis. The test drug was the combination of olopatadine hydrochloride with ketorolac tromethamine compared to olopatadine hydrochloride 0.1% w/v, as three commercially available brands on the market: Winolap®, Opat® and Olo®. These three commercially available brands, as the comparator drug, were provided to the investigators. Any of the three brands of the comparator drug were prescribed by the investigator to the patients per their choice of availability and cost. The patients administered one drop twice daily in each eye for twenty-one days during three weeks. The patients received study medications as well as comparator drug for the entire period. There were five scheduled visits, with screening periods of thirty days and a treatment period of twenty-one days as per protocol. At the end of each visit physicians also rated tolerance and the patient rated acceptability. The efficacy parameters like itching, hyperemia (cilliary, conjunctival, episcleral), chemosis and mucus discharge were compared between groups and scored. The efficacy of the medications was evaluated by comparing the reduction in efficacy parameters, signs and symptoms of allergic conjunctivitis between the treatment groups, based on the twenty-one day period. The efficacy of the study medications was evaluated by comparing the reduction in signs and symptoms of allergic conjunctivitis between the treatment groups. Reduction in the signs and symptoms of allergic conjunctivitis was based on evaluation of efficacy parameters till the end of twenty-one days. For the improvement of allergic conjunctivitis, symptoms like itching, hyperemia, chemosis and mucous discharge were used. The symptoms of allergic conjunctivitis like itching, hyperemia and chemosis were scored as 0, 1, 2, 3 and 4 and mucous discharge was graded as absent or present. [table] Interpretation: •Minimum score: 0; •Maximum score: 4; the higher the score the more severe will be the symptoms of allergic conjunctivitis. In the report, each symptom is graded based on the severity. Efficacy evaluation has been done for first 100 completed cases. The efficacy parameters like itching, hyperemia (cilliary, conjunctival, episcleral), chemosis and mucus discharge were compared between groups.

[2] = test system: adult patients with seasonal allergic conjunctivitis; assay: Same clinical study: safety, tolerability and acceptability; assay type: in vivo, human; settings: mild transient, no treatment required; observed immediately after instillation of eye drop
Source text: The patients administered one drop twice daily in each eye for twenty-one days during three weeks. The patients received study medications as well as comparator drug for the entire period. There were five scheduled visits, with screening periods of thirty days and a treatment period of twenty-one days as per protocol. At the end of each visit physicians also rated tolerance and the patient rated acceptability.
At the end of the each visit physicians rated tolerance as Excellent (No adverse drug reactions), Good (Mild adverse reaction not requiring other treatment or necessitating drug withdrawal), Fair (Adverse reactions requiring treatment without hospitalization or necessitating drug withdrawal and Poor (Severe or serious reaction requiring hospitalization and withdrawal of drug) and the patient rated acceptability as Good (No untoward incidence), Fair (Mild adverse reaction not interfering day to day activities) and Poor (Adverse reactions affecting regular day to day activities).
The safety of the combination of olopatadine-ketorolac was compared with olopatadin. The safety assessment parameters included the number of patients having adverse events, the types of adverse events, and the number of unexpected, severe or serious adverse events in the two arms.

[3] = test system: seasonal allergic conjunctivitis and rhinoconjunctivitis; settings: fourth week of treatment; p=0.03; cited from earlier work
[4] = visit 3, no statistically significant difference

CN(C)CC/C=C1/c2ccccc2COc2ccc(CC(=O)O)cc21 [olopatadine, olopatadine hydrochloride]
mean chemosis score ([1]; baseline): 1.5±0.99
mean cilliary hyperemia score ([1]; baseline): 0.94±0.91
mean conjunctival hyperemia score ([1]; baseline): 2.28±0.83
mean episcleral hyperemia score ([1]; baseline): 0.84±0.79
mean itching score ([1]; baseline, one drop twice daily in each eye): 3±0.67
complaints of mucus discharge ([1]; final scheduled visit): all the enrolled patients were free from the complaints of mucus discharge
mean chemosis score ([1]; visit 2): 1.46±0.95
mean cilliary hyperemia score ([1]; visit 2): 0.94±0.91
mean conjunctival hyperemia score ([1]; visit 2): 2.2±0.84
mean episcleral hyperemia score ([1]; visit 2): 0.84±0.79
mean itching score ([1]; visit 3 (first week), p=0.012 between groups): 2±0.60
mean cilliary hyperemia score ([1]; visit 3): 0.62±0.66
mean chemosis score [1, 4]: 0.92±0.72
mean conjunctival hyperemia score [1, 4]: 1.38±0.86
mean episcleral hyperemia score ([1]; visit 3, p=0.43 printed): 0.62±0.63
mean itching score ([1]; visit 4 (second week), p=0.009 between groups): 1.28±0.67
mean conjunctival hyperemia score ([1]; visit 4 (second week), p=0.02 between groups): 0.8±0.60
mean chemosis score ([1]; visit 4 (second week), p=0.029 between groups): 0.54±0.57
mean episcleral hyperemia score ([1]; visit 4): 0.36±0.56
mean cilliary hyperemia score ([1]; visit 4, p=0.06 between groups): 0.28±0.49
mean chemosis score ([1]; visit 5 (third week), p=0.00004 between groups): 0.3±0.52
mean itching score ([1]; visit 5 (third week), p=0.00009 between groups): 0.78±0.58
mean conjunctival hyperemia score ([1]; visit 5 (third week), p=0.0003 between groups): 0.5±0.54
mean episcleral hyperemia score ([1]; visit 5): 0.18±0.38
mean cilliary hyperemia score ([1]; visit 5, p=0.52 between groups): 0.08±0.34
number of patients experiencing an adverse event [2]: three
chemosis compared to placebo [3]: significant decrease

— patent publication US20130281506A1, “COMBINATION OF A NON-STEROIDAL ANTI-INFLAMMATORY DRUG WITH AN ANTI-HISTAMINIC DRUG INTENDED FOR OPHTHALMIC USE” (ALLERGAN, INC., priority 2012, published 2013)
